Values of other authors as cited in patent US20200399681A1, “ASSAY FOR DETECTION OF ANDROGEN RECEPTOR VARIANTS” (Cornell University, priority 2018, published 2020).
Like-named read-outs stand apart in the source and are kept apart here.

How the values were obtained:
[1] = tested on: prostate cancer patients
[2] = tested on: prostate cancer patients; remark: listed apart in the source

SMILES: CNC(=O)c1ccc(N2C(=S)N(c3ccc(C#N)c(C(F)(F)F)c3)C(=O)C2(C)C)cc1F [enza, enzalutamide]
- adjusted HR for AR-V7 (TTF, multivariable analysis) ([1]; high AR-V7 expression, adjusted for covariates): cohort (adjusted HR = 2.02
- median OS ([1]; pts with high AR-V7 expression (the shorter OS)): 13.8 months
- time to treatment failure (TTF), median ([1]; pts with high AR-V7 expression (top tertile, >19 copies/mg RNA)): P = 0.046) and median 3.6 months
- median OS ([1]; pts without high AR-V7 expression): 29.1 months
- PSA progression-free survival, median ([2]; AR-V7- (negative) pts): 6.0 months; P < 0.001) &
- overall survival (OS), median ([2]; AR-V7- (negative) pts): not reached
- overall survival (OS), median ([2]; AR-V7-positive pts): 5.5 months
- PSA response rates, AR-V7-positive pts compared with AR-V7- pts ([2]; AR-V7-positive vs AR-V7- pts): positive pts had lower PSA
